# From ChEMBL document CHEMBL1140026 (Bioorg Med Chem Lett, 2007)
# Biological target: cGMP-specific 3',5'-cyclic phosphodiesterase (Homo sapiens, UniProt O76074)
# Assay: Inhibition of PDE5
smiles,measurement,value
CCCOc1ccc(S(=O)(=O)N2CCC(CCC(=O)O)CC2)cc1-c1nc2c(CCC)nn(C)c2c(=O)[nH]1,IC50,0.0501 nM
CCCc1nn(C)c2c(=O)[nH]c(-c3cc(S(=O)(=O)N4CCN(C)CC4)cc4c3OCC4)nc12,IC50,240 nM
CCCc1nn(C)c2c(=O)[nH]c(-c3cc(S(=O)(=O)N4CCN(C)CC4)cc4c3OCCO4)nc12,IC50,7.94 nM
CCCc1nn(C)c2c(=O)[nH]c(-c3cc(S(=O)(=O)N4CCN(CCO)CC4)cc4c3OCC4)nc12,IC50,204 nM
CCCc1nn(C)c2c(=O)[nH]c(-c3cc(S(=O)(=O)N4CCN(CCO)CC4)cc4c3OCO4)nc12,IC50,331 nM
CCCc1nn(C)c2c(=O)[nH]c(-c3cc(S(=O)(=O)N4CCN(CCO)CC4)cc4c3OCCO4)nc12,IC50,6.31 nM
CCCc1nn(C)c2c(=O)[nH]c(-c3cc(S(=O)(=O)N4CCC(C(=O)O)CC4)ccc3OCC)nc12,IC50,0.513 nM
CCCc1nn(C)c2c(=O)[nH]c(-c3cc(S(=O)(=O)N4CCC(CC(=O)O)CC4)ccc3OCC)nc12,IC50,0.331 nM
CCCOc1ccc(NC(=O)CCC)cc1-c1nc2c(CCC)nn(C)c2c(=O)[nH]1,IC50,0.269 nM
CCCc1nn(C)c2c(=O)[nH]c(-c3cc(S(=O)(=O)N4CCN(CCC(=O)O)CC4)ccc3OCC)nc12,IC50,0.407 nM
CCCOc1ccc(NC(=O)C(C)C)cc1-c1nc2c(CCC)nn(C)c2c(=O)[nH]1,IC50,0.347 nM
CCCOc1ccc(S(=O)(=O)N2CCC(CC(=O)O)CC2)cc1-c1nc2c(CCC)nn(C)c2c(=O)[nH]1,IC50,0.11 nM
CCCOc1ccc(NC(C)=O)cc1-c1nc2c(CCC)nn(C)c2c(=O)[nH]1,IC50,0.813 nM
CCCc1nn(C)c2c(=O)[nH]c(-c3cc(S(=O)(=O)N4CCC(CCCC(=O)O)CC4)ccc3OCC)nc12,IC50,0.219 nM
CCCc1nn(C)c2c(=O)[nH]c(-c3cc(S(=O)(=O)N4CCC(CCC(=O)O)CC4)ccc3OCC)nc12,IC50,0.151 nM
CCCOc1ccc(NC(=O)CC)cc1-c1nc2c(CCC)nn(C)c2c(=O)[nH]1,IC50,0.38 nM
CCCOc1ccc(S(=O)(=O)N2CCC(C(=O)O)CC2)cc1-c1nc2c(CCC)nn(C)c2c(=O)[nH]1,IC50,0.151 nM
CCCOc1ccc(S(=O)(=O)N2CCC(CCCC(=O)O)CC2)cc1-c1nc2c(CCC)nn(C)c2c(=O)[nH]1,IC50,0.501 nM
CCCOc1ccc(NC(=O)C2CCCCC2)cc1-c1nc2c(CCC)nn(C)c2c(=O)[nH]1,IC50,0.417 nM
CCCc1nn(C)c2c(=O)[nH]c(-c3cc(S(=O)(=O)N4CCN(CCO)CC4)cc4c3OCCC4)nc12,IC50,12.6 nM
